In the assay the test system is BDF1 mice, P388 leukemia ip, median survival T/C. In words: NCI In Vivo Anticancer Drug Screen. Data for tumor model P388 Leukemia (intraperitoneal) in B6D2F1 (BDF1) mice. The note with it: endpoint: median survival time, higher = longer survival. Put shortly: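 T/C = treated-group survival ÷ vehicle-control survival; tumour transplanted into mice before dosing.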

Where [1] appears, read: dose: 100.0 mg/kg/injection, schedule: Q01DX001 (ip), vehicle: saline with Tween-80.
[2] abbreviates: dose: 200.0 mg/kg/injection, schedule: Q01DX001 (ip), vehicle: saline with Tween-80.
Where [3] appears, read: dose: 400.0 mg/kg/injection, schedule: Q01DX001 (ip), vehicle: saline with Tween-80.
Setting [4] is: dose: 100.0 mg/kg/injection, schedule: Q01DX009 (ip), vehicle: saline.
Setting [5] is: dose: 200.0 mg/kg/injection, schedule: Q01DX009 (ip), vehicle: saline.
Setting [6] is: dose: 400.0 mg/kg/injection, schedule: Q01DX009 (ip), vehicle: saline.
The mark [7] stands for this setting: dose: 100.0 mg/kg/injection, schedule: Q01DX009 (ip), vehicle: saline with Tween-80.
The mark [8] stands for this setting: dose: 50.0 mg/kg/injection, schedule: Q01DX009 (ip), vehicle: saline with Tween-80.
Where [9] appears, read: dose: 200.0 mg/kg/injection, schedule: Q01DX009 (ip), vehicle: saline with Tween-80.
[10] abbreviates: dose: 100.0 mg/kg/injection, schedule: Q04DX003 (ip), vehicle: saline.
The mark [11] stands for this setting: dose: 200.0 mg/kg/injection, schedule: Q04DX003 (ip), vehicle: saline.
Setting [12] is: dose: 50.0 mg/kg/injection, schedule: Q04DX003 (ip), vehicle: saline with Tween-80.
Setting [13] is: dose: 100.0 mg/kg/injection, schedule: Q04DX003 (ip), vehicle: saline with Tween-80.
[14] abbreviates: dose: 200.0 mg/kg/injection, schedule: Q04DX003 (ip), vehicle: saline with Tween-80.

Several values for one entry are separate records, joined by “and”; a condition that tells them apart may be missing. Equal values may be shown once. Inconclusive results and toxic doses are left out.

As for `OC1CCC2(CC1)Cc1ccccc1C2O` (centres undefined), the T/C is 114 % of control under setting [1], 119 % of control under setting [2] and 119 % of control under setting [3].

For `CN(C)C(=O)C(=O)C1C=Cc2ccccc21` (centres undefined), the T/C (dose: 100.0 mg/kg/injection, schedule: Q01DX001 (ip), vehicle: Klucel (hydroxypropylcellulose) (HPC)) is 100 % of control; the T/C (dose: 100.0 mg/kg/injection, schedule: Q04DX003 (ip), vehicle: Klucel (hydroxypropylcellulose) (HPC)) is 100 % of control; the T/C (dose: 200.0 mg/kg/injection, schedule: Q01DX001 (ip), vehicle: Klucel (hydroxypropylcellulose) (HPC)) was 95 % of control; the T/C (dose: 200.0 mg/kg/injection, schedule: Q04DX003 (ip), vehicle: Klucel (hydroxypropylcellulose) (HPC)) was 104 % of control; the T/C (dose: 400.0 mg/kg/injection, schedule: Q01DX001 (ip), vehicle: Klucel (hydroxypropylcellulose) (HPC)) was 90 % of control; the T/C (dose: 400.0 mg/kg/injection, schedule: Q04DX003 (ip), vehicle: Klucel (hydroxypropylcellulose) (HPC)) is 104 % of control.

For the molecule `CC(=O)/C=C/c1ccc([N+](=O)[O-])cc1`, the T/C (dose: 100.0 mg/kg/injection, schedule: Q04DX003 (ip), vehicle: saline sonified) is 90 % of control; the T/C (dose: 200.0 mg/kg/injection, schedule: Q04DX003 (ip), vehicle: saline sonified) is 90 % of control; the T/C (dose: 400.0 mg/kg/injection, schedule: Q04DX003 (ip), vehicle: saline sonified) was 100 % of control.

Turning to `CCC(C)C1NC(=O)C(NC(=O)c2c3nc4c(C(=O)NC5C(=O)NC(C(C)CC)C(=O)N6CCCC6C(=O)N(C)CC(=O)N(C)C(C(C)C)C(=O)OC5C)cc(N)c(C)c4oc-3c(C)c(=O)c2N)C(C)OC(=O)C(C(C)C)N(C)C(=O)CN(C)C(=O)C2CCCN2C1=O` (centres undefined), the T/C is, setting by setting: (dose: 0.15 mg/kg/injection, schedule: Q04DX003 (ip), vehicle: saline + alcohol) 206 % of control; (dose: 0.3 mg/kg/injection, schedule: Q04DX003 (ip), vehicle: saline + alcohol) 227 % of control; (dose: 0.6 mg/kg/injection, schedule: Q04DX003 (ip), vehicle: saline + alcohol) 255 % of control and 312 % of control; (dose: 1.2 mg/kg/injection, schedule: Q04DX003 (ip), vehicle: saline + alcohol) 197 % of control; (dose: 25.0 micrograms/kg/injection, schedule: Q01DX009 (ip), vehicle: saline + alcohol) 190 % of control; (dose: 50.0 micrograms/kg/injection, schedule: Q01DX009 (ip), vehicle: saline + alcohol) 236 % of control. The T/C is 232 % of control (dose: 100.0 micrograms/kg/injection, schedule: Q01DX009 (ip), vehicle: saline + alcohol); 291 % of control (dose: 200.0 micrograms/kg/injection, schedule: Q01DX009 (ip), vehicle: saline + alcohol); 86 % of control (dose: 400.0 micrograms/kg/injection, schedule: Q01DX009 (ip), vehicle: saline + alcohol).

Regarding `COCC(N)=O`, the T/C under setting [4] is 106 % of control, the T/C under setting [5] was 97 % of control and the T/C under setting [6] was 113 % of control.

On to `Nc1ncnc2c1nnn2C1CC(CO)C(O)C1O` (centres undefined), for which the T/C (dose: 67.0 mg/kg/injection, schedule: Q01DX009 (ip), vehicle: saline with Tween-80) was 163 % of control; the T/C (dose: 75.0 mg/kg/injection, schedule: Q01DX009 (ip), vehicle: saline with Tween-80) is 153 % of control; the T/C under setting [7] was 168 % of control.

In the case of `CSCC1(O)CCCCC1`, the T/C under setting [8] is 111 % of control, the T/C under setting [7] was 101 % of control and the T/C under setting [9] is 112 % of control.

On to `OCCOCCN1CCN(CCCN2c3ccccc3Sc3ccc(C(F)(F)F)cc32)CC1`, for which the T/C reads like this: (dose: 1.56 mg/kg/injection, schedule: Q01DX009 (ip), vehicle: saline) 109 % of control; (dose: 12.5 mg/kg/injection, schedule: Q04DX003 (ip), vehicle: saline) 113 % of control and 120 % of control; (dose: 50.0 mg/kg/injection, schedule: Q04DX003 (ip), vehicle: saline) 117 % of control.

With `C[N+]1(C2CCC3CCC2C3O)CCOCC1` (centres undefined), the T/C was 91 % of control and 92 % of control (dose: 12.5 mg/kg/injection, schedule: Q01DX009 (ip), vehicle: saline); 100 % of control (dose: 25.0 mg/kg/injection, schedule: Q01DX009 (ip), vehicle: saline); 91 % of control and 92 % of control (dose: 50.0 mg/kg/injection, schedule: Q01DX009 (ip), vehicle: saline); 100 % of control and 90 % of control under setting [10]; 90 % of control under setting [11].

In the case of `Nc1ccc(C2=NN(c3ccccc3)CN(c3ccccc3)N2)cc1`, the T/C by setting is: under setting [1], 101 % of control; under setting [2], 107 % of control; under setting [3], 102 % of control.

As to `O=C(Nc1ccccc1O)/C(Cl)=C/Cl`, the T/C (dose: 22.0 mg/kg/injection, schedule: Q01DX009 (ip), vehicle: saline with Tween-80) was 122 % of control and the T/C (dose: 33.0 mg/kg/injection, schedule: Q01DX009 (ip), vehicle: saline with Tween-80) is 123 % of control.

As to `CCOC(=O)CN(CC)C(=O)NC12CC3CC(CC(C3)C1)C2`, the T/C was 100 % of control (dose: 100.0 mg/kg/injection, schedule: Q01DX009 (ip), vehicle: Klucel (hydroxypropylcellulose) (HPC)); 103 % of control (dose: 200.0 mg/kg/injection, schedule: Q01DX009 (ip), vehicle: Klucel (hydroxypropylcellulose) (HPC)); 102 % of control (dose: 400.0 mg/kg/injection, schedule: Q01DX009 (ip), vehicle: Klucel (hydroxypropylcellulose) (HPC)).

Consider `CS(=O)(=O)c1nc(N)nc2nc[nH]c12`, for which the T/C (dose: 75.0 mg/kg/injection, schedule: Q04DX003 (ip), vehicle: saline) is 104 % of control; the T/C under setting [4] is 115 % of control; the T/C (dose: 150.0 mg/kg/injection, schedule: Q04DX003 (ip), vehicle: saline) is 100 % of control; the T/C under setting [5] is 105 % of control; the T/C (dose: 300.0 mg/kg/injection, schedule: Q04DX003 (ip), vehicle: saline) was 109 % of control.

For the molecule `CCn1c(Cl)c(/C=N/Nc2ccc([N+](=O)[O-])cc2[N+](=O)[O-])c2ccccc21`, the T/C (dose: 100.0 mg/kg/injection, schedule: Q04DX002 (ip), vehicle: Klucel (hydroxypropylcellulose) (HPC)) is 92 % of control; the T/C (dose: 200.0 mg/kg/injection, schedule: Q04DX002 (ip), vehicle: Klucel (hydroxypropylcellulose) (HPC)) is 92 % of control; the T/C (dose: 400.0 mg/kg/injection, schedule: Q04DX002 (ip), vehicle: Klucel (hydroxypropylcellulose) (HPC)) is 88 % of control.

`NC(=O)CNC1=C(N2CC2)C(=O)C(NCC(N)=O)=C(N2CC2)C1=O`: the T/C was 171 % of control (dose: 2.0 mg/kg/injection, schedule: Q01DX009 (ip), vehicle: saline); 166 % of control (dose: 4.0 mg/kg/injection, schedule: Q01DX009 (ip), vehicle: saline); 116 % of control (dose: 8.0 mg/kg/injection, schedule: Q01DX009 (ip), vehicle: saline).

With `Cc1cc(NC(=O)c2ccccc2)c(Cl)cc1N`, the T/C by setting is: under setting [12], 95 % of control; under setting [13], 95 % of control; under setting [14], 95 % of control.

For `CCOC(=O)C1CCCNC1` (centres undefined), the T/C is, setting by setting: under setting [4], 104 % of control; under setting [10], 95 % of control; under setting [5], 100 % of control; under setting [11], 91 % of control; under setting [6], 112 % of control; (dose: 400.0 mg/kg/injection, schedule: Q04DX003 (ip), vehicle: saline) 87 % of control.

On to `Cc1ccc(C(=O)NCCCOc2ccc(N)cc2Cl)cc1S(=O)(=O)F`, for which the T/C was 102 % of control (dose: 25.0 mg/kg/injection, schedule: Q01DX009 (ip), vehicle: saline with Tween-80); 111 % of control under setting [8]; 100 % of control under setting [12]; 93 % of control under setting [7]; 92 % of control under setting [13]; 107 % of control under setting [9]. Moreover, the T/C is 92 % of control under setting [14] and 90 % of control (dose: 400.0 mg/kg/injection, schedule: Q04DX003 (ip), vehicle: saline with Tween-80).

The values are drawn from PubChem BioAssay AID328 (DTP/NCI, 2004).
